The results in this text go back to US11186564B2, “Dual NAV1.2/5HT2a inhibitors for treating CNS disorders” (Sunovion Pharmaceuticals Inc., priority 2016, dated 2021).

As usually defined, the IC50 is the concentration at which inhibition is half-maximal.

Counter-ions that a name gives are not always drawn.

Experiment [1] deals with T1, recombinant human serotonin receptor 5-HT2A (Homo sapiens, UniProt P28223).
T1 construct: expressed in transfected cells; method B: loaded with Ca2+ dye
The experiment is described as follows: 5-HT2A antagonist Ca2+ assay in CHO-K1 cells (method A aequorin luminescence / method B FLIPR fluorescence). It counts as cell-based. As to conditions: antagonist mode vs EC80 of reference agonist, method A or B, read-out: 5HT2A IC50. In outline:
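IC50 was obtained by nonlinear regression of percent inhibition of the EC80 agonist Ca2+ response in CHO-K1 cells stably expressing human 5-HT2A. The readout was aequorin luminescence with agonist injected 15 min after compound (A), or Ca2+-dye fluorescence on FLIPR with serotonin as agonist (B).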

For experiment [2], the target named is human sodium channel NaV1.2 (Homo sapiens, UniProt Q99250). The experiment in a line: NaV1.2 inhibition, automated patch-clamp (Q-Patch HTX), slow inactivated state (state C). Type of experiment: cell-based. As to conditions: hNaV1.2 CHO cells, slow inactivated state; for IC50: read-out: NaV1.2 IC50; for inhibition at 10 µM: 10 μM compound, read-out: NaV1.2 (% inh), 10 μM. In short, it runs like this:
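IC50 comes from a least-squares fit of percent inhibition, relative to vehicle, of current in the slow-inactivated state. That state is reached by a 10 s prepulse to −50 mV, then 15 ms at −90 mV, then a 5 ms test pulse to 0 mV. Human NaV1.2 in stable CHO K-1 cells, held at −100 mV, automated patch clamp.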
On the technique in general: Patch clamp records ionic current or voltage across a cell membrane.

Sequence of human sodium channel NaV1.2 (Q99250 whole entry): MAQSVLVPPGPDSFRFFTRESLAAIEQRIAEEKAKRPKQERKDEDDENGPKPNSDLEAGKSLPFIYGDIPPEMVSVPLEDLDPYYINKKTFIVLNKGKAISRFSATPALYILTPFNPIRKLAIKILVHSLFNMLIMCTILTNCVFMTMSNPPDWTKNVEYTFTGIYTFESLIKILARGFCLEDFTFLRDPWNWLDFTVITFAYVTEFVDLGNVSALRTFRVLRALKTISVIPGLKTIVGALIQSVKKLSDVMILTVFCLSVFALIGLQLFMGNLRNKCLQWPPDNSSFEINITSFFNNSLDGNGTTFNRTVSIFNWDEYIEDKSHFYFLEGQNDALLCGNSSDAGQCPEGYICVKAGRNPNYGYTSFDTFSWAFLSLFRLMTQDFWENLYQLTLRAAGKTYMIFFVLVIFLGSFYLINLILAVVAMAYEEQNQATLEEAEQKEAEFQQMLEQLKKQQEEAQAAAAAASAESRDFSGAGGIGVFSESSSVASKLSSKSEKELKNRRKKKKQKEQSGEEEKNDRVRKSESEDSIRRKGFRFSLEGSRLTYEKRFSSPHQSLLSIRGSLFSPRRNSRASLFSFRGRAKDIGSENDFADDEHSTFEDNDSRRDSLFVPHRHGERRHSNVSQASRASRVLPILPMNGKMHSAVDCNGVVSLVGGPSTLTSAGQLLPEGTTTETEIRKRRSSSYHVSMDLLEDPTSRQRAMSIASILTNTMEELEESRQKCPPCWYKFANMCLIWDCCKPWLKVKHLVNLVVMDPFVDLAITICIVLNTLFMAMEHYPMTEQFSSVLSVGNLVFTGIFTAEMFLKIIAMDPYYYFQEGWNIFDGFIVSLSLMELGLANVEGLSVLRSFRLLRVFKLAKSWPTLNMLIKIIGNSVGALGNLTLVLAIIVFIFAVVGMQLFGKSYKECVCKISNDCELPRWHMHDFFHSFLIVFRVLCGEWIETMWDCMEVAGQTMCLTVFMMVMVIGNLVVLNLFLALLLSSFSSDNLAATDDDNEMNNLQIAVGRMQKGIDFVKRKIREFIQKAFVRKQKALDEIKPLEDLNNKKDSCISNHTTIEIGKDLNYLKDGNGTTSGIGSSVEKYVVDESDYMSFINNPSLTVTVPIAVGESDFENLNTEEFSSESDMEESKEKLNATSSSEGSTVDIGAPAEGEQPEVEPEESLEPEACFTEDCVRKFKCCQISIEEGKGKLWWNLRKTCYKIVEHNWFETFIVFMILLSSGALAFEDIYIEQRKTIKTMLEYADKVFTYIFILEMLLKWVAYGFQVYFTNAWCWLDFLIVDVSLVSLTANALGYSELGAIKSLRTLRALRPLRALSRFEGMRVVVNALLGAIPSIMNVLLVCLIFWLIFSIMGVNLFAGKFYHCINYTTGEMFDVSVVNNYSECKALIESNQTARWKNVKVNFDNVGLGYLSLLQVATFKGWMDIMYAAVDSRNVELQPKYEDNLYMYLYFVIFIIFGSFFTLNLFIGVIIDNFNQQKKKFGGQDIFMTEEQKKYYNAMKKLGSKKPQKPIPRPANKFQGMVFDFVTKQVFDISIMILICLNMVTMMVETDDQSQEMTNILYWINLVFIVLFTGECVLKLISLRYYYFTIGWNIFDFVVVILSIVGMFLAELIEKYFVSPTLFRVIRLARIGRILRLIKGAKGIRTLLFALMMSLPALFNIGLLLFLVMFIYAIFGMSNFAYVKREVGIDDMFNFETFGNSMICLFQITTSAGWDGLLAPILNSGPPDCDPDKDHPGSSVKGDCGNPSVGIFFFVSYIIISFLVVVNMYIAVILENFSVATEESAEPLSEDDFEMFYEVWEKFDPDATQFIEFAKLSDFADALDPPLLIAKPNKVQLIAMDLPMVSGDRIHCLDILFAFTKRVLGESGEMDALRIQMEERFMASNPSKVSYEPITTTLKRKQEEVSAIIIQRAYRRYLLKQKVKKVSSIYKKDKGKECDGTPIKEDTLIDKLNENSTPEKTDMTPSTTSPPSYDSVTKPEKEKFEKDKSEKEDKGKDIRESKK
T1 sequence (P28223 whole entry): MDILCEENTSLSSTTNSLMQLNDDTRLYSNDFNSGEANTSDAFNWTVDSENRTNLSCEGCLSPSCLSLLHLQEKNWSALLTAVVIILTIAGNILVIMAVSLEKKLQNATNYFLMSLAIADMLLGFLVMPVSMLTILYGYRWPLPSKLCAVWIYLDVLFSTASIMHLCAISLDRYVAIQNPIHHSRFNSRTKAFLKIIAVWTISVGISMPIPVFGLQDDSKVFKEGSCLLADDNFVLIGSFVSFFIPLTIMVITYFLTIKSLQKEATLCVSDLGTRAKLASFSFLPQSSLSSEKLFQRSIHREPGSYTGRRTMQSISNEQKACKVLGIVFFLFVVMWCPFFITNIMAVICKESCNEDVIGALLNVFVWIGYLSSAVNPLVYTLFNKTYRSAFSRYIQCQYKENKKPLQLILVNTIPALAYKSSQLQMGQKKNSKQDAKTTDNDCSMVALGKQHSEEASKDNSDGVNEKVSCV

Consider `Fc1ccc(OC2CCN(CC3Cc4cccnc4C3)CC2)cc1` (stereo not shown) [Example 155, 6-((4-(4-fluorophenoxy)piperidin-1-yl)methyl)-6,7-dihydro-5H-cyclopenta[b]pyridine dihydrochloride], for which the IC50 in experiment [1] stood at 40 nM; in experiment [2] it was 1000 nM.

Regarding `COc1cccc(OCCN2CCC(Oc3ccccc3)CC2)c1` [Example 224, 1-(2-(3-methoxyphenoxy)ethyl)-4-phenoxypiperidine], the IC50 in experiment [1] was 170 nM. Further, in experiment [2], the inhibition at 10 µM came to 81%.

As to `COc1ccccc1O[C@H]1CCN(CC2Cc3ccccc3C2)[C@H](C)C1` [Example 141, (2R,4S)-1-((2,3-dihydro-1H-inden-2-yl)methyl)-4-(2-methoxyphenoxy)-2-methylpiperidine], the figures for the IC50 in experiment [1] and in experiment [2] were 200 nM and 1010 nM, respectively.

For `OC(COC1CCCCC1)CN1C[C@@H]2C[C@H]1CN2c1ccccc1` (stereo partly drawn) [Example 306, 1-(cyclohexyloxy)-3-((1S,4S)-5-phenyl-2,5-diazabicyclo[2.2.1]heptan-2-yl)propan-2-ol], the IC50 in experiment [1] was 1660 nM. In experiment [2], the inhibition at 10 µM is 60%.

For the molecule `Fc1ccc(OC2CCN(CCC3CCc4cnccc43)CC2)cc1` (stereo not shown) [Example 173, 5-(2-(4-(4-fluorophenoxy)piperidin-1-yl)ethyl)-6,7-dihydro-5H-cyclopenta[c]pyridine], the IC50 in experiment [1] was 10 nM; in experiment [2], 3170 nM.

Regarding `COc1ccc2c(c1)C(CN1CC[C@@H]3C[C@H]1CN3c1ccccc1)CC2` (stereo partly drawn) [Example 319, (1S,5R)-2-((6-methoxy-2,3-dihydro-1H-inden-1-yl)methyl)-6-phenyl-2,6-diazabicyclo[3.2.1]octane], the IC50 came to 1210 nM in experiment [1] and 40 nM in experiment [2].

For `c1ccc(OCCN2CCN(c3nsc4ccccc34)CC2)cc1` [Example 70, 3-(4-(2-phenoxyethyl)piperazin-1-yl)benzo[d]isothiazole], the IC50 came out at 4 nM in experiment [1] and 1700 nM in experiment [2].

With `O=C1c2ccccc2CCN1CCN1CCC(Oc2cccc(F)c2)CC1` [Example 193, 2-(2-(4-(3-fluorophenoxy)piperidin-1-yl)ethyl)-3,4-dihydroisoquinolin-1(2H)-one], in experiment [1], the IC50 came to 330 nM. For the same molecule, the inhibition at 10 µM in experiment [2] was 66%.
